Results published in patent US20100160401A1, “4-PHENYLIMIDAZOLE-2-THIONE TYROSINASE INHIBITORS AND TREATMENT OR PREVENTION OF PIGMENTARY DISORDERS THEREWITH” (GALDERMA RESEARCH & DEVELOPMENT, BIOT, FRANCE, priority 2007, published 2010).
pIC50: −log10 of the molar value.

Biological target: T1, tyrosinase (Mus musculus, UniProt P11344)
T1 construct: the supernatant obtained constitutes the cell lysate used as tyrosinase source in the enzymatic assay; endogenous in cells; host or cells: B16F1 murine melanoma cells, cultured with alpha-MSH, lysed in 1% Igepal and sonicated; the supernatant was used
T1 sequence (P11344 19-533): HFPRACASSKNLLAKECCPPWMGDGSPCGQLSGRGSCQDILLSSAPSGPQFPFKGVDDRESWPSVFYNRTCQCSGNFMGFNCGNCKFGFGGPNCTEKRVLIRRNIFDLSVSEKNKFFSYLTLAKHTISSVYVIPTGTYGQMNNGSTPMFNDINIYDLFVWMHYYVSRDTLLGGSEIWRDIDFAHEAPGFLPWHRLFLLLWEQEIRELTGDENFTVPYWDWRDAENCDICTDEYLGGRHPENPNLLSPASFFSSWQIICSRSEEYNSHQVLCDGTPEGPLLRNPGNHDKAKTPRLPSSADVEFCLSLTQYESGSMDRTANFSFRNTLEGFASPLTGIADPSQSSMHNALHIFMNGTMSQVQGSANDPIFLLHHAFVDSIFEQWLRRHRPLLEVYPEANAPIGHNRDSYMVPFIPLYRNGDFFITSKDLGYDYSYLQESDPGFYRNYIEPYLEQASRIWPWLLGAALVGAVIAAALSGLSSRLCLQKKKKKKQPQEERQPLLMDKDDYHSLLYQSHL
Assay: Tyrosinase activity inhibition assay (B16F1 cell lysate, L-tyrosine substrate, MBTH trapping, absorbance 520 nm)
Type: biochemical
Details: lysate of B16F1 cells (murine melanoma line) as tyrosinase source, 37° C., reading at 520 nm after 6 hours, read-out: Tyrosine hydroxylase/Dopa oxidase IC50
Procedure: The activity of the inhibitors is measured starting from a lysate of B16F1 cells (murine melanoma line). In the presence of the L-tyrosine substrate, the tyrosinase present in these cells catalyses the hydroxylation of L-tyrosine to give L-DOPA and then the oxidation of the L-DOPA to give dopaquinone. In the presence of MBTH (3-methyl-2-benzothiazolinone hydrazone), the dopaquinone is trapped so as to form a pink complex which absorbs at 520 nm.
The B16F1 cells are cultured in DMEM medium+10% foetal calf serum+10^−9 M α-MSH for 4 days at 37° C. under 7% CO2. They are treated with trypsin, washed with PBS, counted and pelleted. The pellet is taken up at 10^7 cells/ml in lysis buffer (10 mM sodium phosphate, pH 6.8-1% Igepal) and the suspension is treated with ultrasound for 10 seconds. After centrifugation for 30 minutes at 4000 rpm, the supernatant obtained constitutes the cell lysate used as tyrosinase source in the enzymatic assay.
The assays are carried out in duplicate in 384-well plates in a total volume of 50 μl. Each well contains:
40 μl of solution containing 1.25 mM L-tyrosine, 6.25 μM L-DOPA (cofactor) and 3.75 mM MBTH in buffer B (62.25 mM sodium phosphate, pH 6.8-2.5% dimethylformamide),
5 μl of inhibitor diluted in DMSO,
5 μl of cell lysate diluted to ½ in 50 mM Tris HCl buffer, pH 7.5.
The plate is incubated at 37° C. and a spectrophotometric reading is carried out at 520 nm after incubating for 6 hours. To avoid any possible absorption of the products, the system uses corrected absorbance (absorbance at time 6 h absorbance at time zero).
The inhibitors are assayed in terms of dose-response so as to calculate an IC50 (dose which inhibits 50% of the enzymatic activity).
Several internal controls are added to each experiment:
control for 100% activity: the 5 μl of inhibitor are replaced with 5 μl of DMSO,
control for 50% activity: the 5 μl of inhibitor are replaced with 5 μl of phenylthiourea at 300 μM in DMSO,
control for 0% activity: the L-tyrosine substrate is replaced with buffer B.

Sc1nc(-c2ccccc2)c[nH]1 [Compound 1, 4-phenyl-1,3-dihydroimidazole-2-thione]
pIC50: 6.60

COc1ccc(-c2c[nH]c(=S)[nH]2)cc1 [Compound 3, 4-(4-methoxyphenyl)-1,3-dihydroimidazole-2-thione]
pIC50: 6.05

S=c1[nH]cc(-c2cccc(Br)c2)[nH]1 [Compound 4, 4-(3-bromophenyl)-1,3-dihydroimidazole-2-thione]
pIC50: 5.52

Fc1ccc(-c2c[nH]c(=S)[nH]2)cc1 [Compound 8, 4-(4-fluorophenyl)-1,3-dihydroimidazole-2-thione]
pIC50: 6.52

Cc1ccc(-c2cnc(S)[nH]2)cc1 [Compound 13, 4-(4-methylphenyl)-1,3-dihydroimidazole-2-thione]
pIC50: 6.22
